Read-outs that look alike come from different tables or passages of the source.
Test system: HCV replicon in Huh-7 cells
Assay: HCV replicon assay (NPT ELISA) for inhibition of HCV replication
Format: cell-based
Conditions: Hepatitis C virus, Huh-7, 72 h, HCV replicon-containing Huh-7 cells, three days incubation
Description: Compounds claimed herein are tested for the ability to inhibit viral replication of the Hepatitis C replicon in cultured cells in which the HCV replicon construct has been incorporated. The HCV replicon system was described by Bartenschlager, et. al (Science, 285, pp. 110-113 (1999)). The replicon system is predictive of in vivo anti-HCV activity; compounds that are active in humans uniformly evidence activity in the replicon assay.
In this assay HCV replicon containing cells are treated with different concentrations of the test compound to ascertain the ability of the test compound to suppress replication of the HCV replicon. As a positive control, HCV replicon-containing cells are treated with different concentrations of interferon alpha, a known inhibitor of HCV replication. The replicon assay system includes Neomycin Phosphotransferase (NPT) as a component of the replicon itself in order to detect the transcription of replicon gene products in the host cell. Cells in which the HCV replicon is actively replicating have high levels of NPT; the level of NPT is proportional to HCV replication. […] The NPT level of each sample is measured using a captured ELISA.
A protocol for testing compounds for the ability to inhibit viral replication of the Hepatitis C replicon cultured cells in which the replicon construct has been incorporated, follows.
The HCV replicon contains, 5′-3′, the HCV-IRES, the neomycin phosphotransferase (neo) gene, the IRES of encephalomyocarditis virus, which directs translation of HCV sequences NS3 to NS5B, and the 3′-NTR. The sequence of the HCV replicon has been deposited in GenBank (Accession no. AJ242652).
The replicon is transfected into Huh-7 cells using standard methods such as electroporation.
The equipment and materials include, but are not limited to, Huh-7 HCV replicon-containing cells, maintenance media (DMEM (Dulbecco's modified Eagle media) supplemented with 10% FBS, L-glutamine, non-essential amino acids, penicillin (100 units/ml), streptomycin (100 micrograms/ml), and 500 micrograms/ml of Geneticin (G418), screening media (DMEM supplemented with 10% FBS, L-glutamine, non-essential amino acids, penicillin (100 units/ml) and streptomycin (100 micrograms/ml)), 96 well tissue culture plates (flat bottom), 96 well plates (U bottom for drug dilution), Interferon alpha for positive control, fixation reagent (such as methanol:acetone), primary antibody (rabbit anti-NPTII), secondary antibody: Eu-N11, and enhancement solution.
HCV replicon-containing cells support high levels of viral RNA replicon replication when their density is suitable. Over-confluency causes decreased viral RNA replication. Therefore, cells must be kept growing in log phase in the presence of 500 micrograms/ml of G418. Generally, cells should be passed twice a week at 1: 4-6 dilution. Cell maintenance is conducted as follows:
HCV replicon-containing cells are examined under a microscope to ensure that cells growing well. Cells are rinsed once with PBS and 2 ml trypsin is added. The cell/trypsin mixture is incubated at 37° C. in a CO2 incubator for 3-5 minutes. After incubation 10 ml of complete media is added to stop the trypsinization reaction. Cells are blown gently, put into a 15 ml tube, and spun at 1200 rpm for 4 minutes. The trypsin/medium solution is removed. Medium (5 ml) is added and the cells are mixed carefully. The cells are counted.
The cells are then seeded onto 96-well plates at a density of 6000-7500 cells/100 microliters/well (6-7.5×10^5 cells/10 ml/plate). The plates are then incubated at 37° C. in a 5% CO2 incubator.
Cells are examined under a microscope approximated 24 hours after seeding and prior to adding drugs. If counting and dilution were performed correctly, cells are 60-70% confluent and nearly all cells should attach and spread evenly in the well.
HCV replicon-containing cells are rinsed with once PBS once; 2 mls of trypsin are then added. Cells are incubated at 37° C. in a 5% CO2 incubator for 3-5 minutes. […]

Compound	EC50	EC50 (read-out: EC50)
COc1ccc2c(O[C@@H]3C[C@H]4C(=O)N[C@@]5(C(=O)NS(=O)(=O)C6CC6)C[C@@H]5/C=C\CCCC(=O)N(C)[C@@H](C(C)(C)C)C(=O)N4C3)cc(-c3ccccc3)nc2c1 [Compound 11, (2R,6S,13aR,14aS,16aS,Z)-6-tert-butyl-N-(cyclopropylsulfonyl)-2-(7-methoxy-2-phenylquinolin-4-yloxy)-7-methyl-5,8,16-trioxo-1,2,3,5,6,7,8,9,10,11,13a,14,14a,15,16,16a-hexadecahydrocyclopropa[n]pyrrolo[2,1-c] [1,4,7]triazacyclopentadecine-14a-carboxamide]	≤ 10 µM	> 10 µM
COc1ccc2c(O[C@@H]3C[C@H]4C(=O)NC5(C(=O)NS(=O)(=O)C6CC6)CC5/C=C\CCCC(=O)N[C@@H](C(C)(C)C)C(=O)N4C3)cc(-c3ccccc3)nc2c1 (stereo partly drawn) [Compound 4, (2R,6S,16aS,Z)-6-tert-butyl-N-(cyclopropylsulfonyl)-2-(7-methoxy-2-phenylquinolin-4-yloxy)-5,8,16-trioxo-1,2,3,5,6,7,8,9,10,11,13a,14,14a,15,16,16a-hexadecahydrocyclopropa[n]pyrrolo[2,1-c] [1,4,7]triazacyclopentadecine-14a-carboxamide]		1 to 10 µM
CCOC(=O)[C@@]12C[C@@H]1/C=C\CCCC(=O)N[C@@H](C(C)(C)C)C(=O)N1C[C@H](Oc3cc(-c4ccccc4)nc4cc(OC)ccc34)C[C@H]1C(=O)N2 [Compound 1, (2R,6S,13aR,14aR,16aS,Z)-ethyl 6-tert-butyl-2-(7-methoxy-2-phenylquinolin-4-yloxy)-5,8,16-trioxo-1,2,3,5,6,7,8,9,10,11,13a,14,14a,15,16,16a-hexadecahydrocyclopropa[n]pyrrolo[2,1-c] [1,4,7]triazacyclopentadecine-14a-carboxylate]		> 10 µM
C=CCCCC(=O)N[C@@H](C(=O)N1C[C@H](Oc2cc(-c3ccccc3)nc3cc(OC)ccc23)C[C@H]1C(=O)N[C@]1(C(=O)NS(=O)(=O)C2CC2)C[C@H]1C=C)C(C)(C)C [Compound 7, (2S,4R)-N-((1R,2S)-1-(cyclopropylsulfonylcarbamoyl)-2-vinylcyclopropyl)-1-((R)-2-hex-5-enamido-3,3-dimethylbutanoyl)-4-(7-methoxy-2-phenylquinolin-4-yloxy)pyrrolidine-2-carboxamide]		1 to 10 µM
COc1ccc2c(O[C@@H]3C[C@H]4C(=O)N[C@]5(C(=O)NS(=O)(=O)C6CC6)C[C@H]5/C=C\CCCC(=O)N[C@@H](CC(=O)N5CCCC(F)(F)C5)C(=O)N4C3)cc(-c3nc(C(C)C)cs3)nc2c1C [Compound 17, (2R,6S,14aR,16aS,Z)-N-(cyclopropylsulfonyl)-6-(2-(3,3-difluoropiperidin-1-yl)-2-oxoethyl)-2-(2-(4-isopropylthiazol-2-yl)-7-methoxy-8-methylquinolin-4-yloxy)-5,8,16-trioxo-1,2,3,5,6,7,8,9,10,11,13a,14,14a, 15,16,16a-hexadecahydrocyclopropa[n] pyrrolo[2,1-c][1,4,7]triazacyclopenta-decine-14a-carboxamide]		< 1 µM
COc1ccc2c(O[C@@H]3C[C@H]4C(=O)N[C@]5(C(=O)NS(=O)(=O)C6CC6)C[C@H]5/C=C\CCCC(=O)N(C)[C@@H](C(C)(C)C)C(=O)N4C3)cc(-c3ccccc3)nc2c1 [Compound 10, (2R,6S,13aS,14aR,16aS,Z)-6-tert-butyl-N-(cyclopropylsulfonyl)-2-(7-methoxy-2-phenylquinolin-4-yloxy)-7-methyl-5,8,16-trioxo-1,2,3,5,6,7,8,9,10,11,13a,14,14a,15,16,16a-hexadecahydrocyclopropa[n]pyrrolo[2,1-c] [1,4,7]triazacyclopentadecine-14a-carboxamide]		> 10 µM
